Results taken from patent US20110028566A1, “COMPOSITIONS AND PRODUCTS CONTAINING CYCLOALIPHATIC DIOL ANTIMICROBIAL AGENTS AND METHODS OF USING THE COMPOSITIONS AND PRODUCTS” (EASTMAN CHEMICAL COMPANY, priority 2009, published 2011).

Experiments:
[1] = system: challenge organisms (fungi, Gram negative and Gram positive bacteria); experiment: Microbial challenge testing (Example 1), statements over all challenge organisms; type: cell-based; settings: Table 6 experiments; glycol 0.5 to 2.5 wt %, BIT 0.05 and 0.2 wt %; from grade codes
Procedure: The microorganisms used in challenge tests are given in Table 3, designated as either ATCC (American Type Culture Collection) or wild type. These wild type organisms were problematic organisms previously isolated from chemical products. In the description for each organism, the bacteria are indicated as either GN (Gram negative) or GP (Gram positive). […] Sample substrates were prepared in triplicate, except those substrates containing PE or CG which were prepared in duplicate. […] After mixing, all challenged substrates were incubated at 35° C.±2° C. for 14 days and then at ambient room temperature. […] The turbidity of the sample was determined and, if needed, the sample was diluted with phosphate buffer (pH 7.2) to produce readable plate counts (see “Plate Counts” below). […] For diluted samples, plates producing 22 to 220 colonies per plate were counted and the count was multiplied by the dilution factor. […] Possible synergies were determined by treating the grade code as an estimate of the log of the microbial count (log of cfu/mL). […] Synergies were determined in the same way as described above for Table 5. […] As mentioned previously, synergies (as indicated in Tables 5 and 6) were determined by treating the grade codes as the logarithm (log) of the organism counts (cfu/ml), then adding log reductions for the individual components and comparing to the log reduction for the mixture. […]

Microsporum canis = experiment: Challenge testing with pathogenic fungi in SDB; type: cell-based; settings: w/v % in label, visual growth in tubes; for Grade code, Pathogenic Fungi, M. canis, 3 Days: 3 days incubation; for Grade code, Pathogenic Fungi, M. canis, 14 Days: 14 days incubation; for Grade code, Pathogenic Fungi, M. canis, 30 Days: 30 days incubation
Procedure: Both M. canis and Trichophyton rubrum were grown on Sabouraud dextrose broth (SDB) (pH 5.6), while Malassezia fufur was grown in SDB supplemented with 2% (v/v) of olive oil and 0.2% (v/v) of Tween™ 80; incubation was at 22° C.±2° C. under continuous agitation by stirring for 10 days. The organisms were grown to a cell concentration of between 10^3 and 10^4 cfu/mL. The actual inoculation cell concentration of these challenges was determined by diluting in sterile buffer water and (spread-plate method) plating for enumeration.
Challenge organisms were used to inoculate tubes containing each test material (CHDM, etc) or combination of test materials, at concentrations given in Table 5, in SDB (or for M. furfur, in SDB supplemented with olive oil and Tween™ 80). The inoculations were in the amount of 1.5 mL aliquots of each culture with static incubation at 22±2° C. Subcultures were made after 3-, 14-, and 30-days incubation. All challenges were conducted in triplicate. In the case of M. canis, the growth response was assessed by the visual presence or absence of growth in the tubes; in the case of T. rubrum, a respiratory dye (0.2% w/v aqueous INT solution: 2-(4-iodophenyl)-3-(4-nitrophenyl)-5-phenyl tetrazolium chloride) was added to the tubes, turning red if the organism was viable; and, finally, in the case of M. furfur, the growth response was assessed based upon visible pellicle formation in the tubes at the meniscus. The fungal growth in each tube was assigned a grade code as follows:
0: No visible growth 1: Some growth in tube 2: Moderate growth in tube 3: Good growth in tube 4: Extreme growth in tube
All test material concentrations are given as w/v %. The grade codes given are the average of the grade codes for duplicate or triplicate samples.
Table 5 compares the antimicrobial activity of 1,4-CHDM (AB) alone to 1,4-CHDM in combination with EDTA, phenoxyethanol (PE), and caprylyl glycol (CG). CHDM at 0.5% was tested with EDTA, and at 1.25 and 2.5% with EDTA, PE, and CG. (Note that the combination of CHDM with only EDTA was not tested against pathogenic fungi.) Results are also given for EDTA, PE, and CG alone, so the result for each mixture can be compared to the antimicrobial activity for each of its components individually. […] Possible synergies were determined by treating the grade code as an estimate of the log of the microbial count (log of cfu/mL). Log reductions can then be estimated by subtracting each grade code from the grade code for broth alone (grade code 5, except for the pathogenic fungi).

## CC1(C)C(O)C(C)(C)C1O (stereo not drawn) [TMCD, 2,2,4,4-tetramethyl-1,3-cyclobutanediol]
[1]
  Synergism of cycloaliphatic diol with BIT (in words): significant enhancement to the antimicrobial activity of BIT

## O=C([O-])CN(CCN(CC(=O)O)CC(=O)O)CC(=O)[O-].[Na+].[Na+] [EDTA, ethylenediaminetetraacetic acid disodium salt]
Microsporum canis
  Grade code, Pathogenic Fungi, M. canis, 3 Days: 2
  Grade code, Pathogenic Fungi, M. canis, 14 Days: 1
  Grade code, Pathogenic Fungi, M. canis, 30 Days: 0

## OCC1CCC(CO)CC1 (stereo not drawn) [1,4-CHDM, 1,4-cyclohexanedimethanol]
Microsporum canis
  Grade code, Pathogenic Fungi, M. canis, 3 Days: 2
Microsporum canis; listed as 0.5% AB
  Grade code, Pathogenic Fungi, M. canis, 14 Days: 1
  Grade code, Pathogenic Fungi, M. canis, 30 Days: 1
Microsporum canis; listed as 1.25% AB
  Grade code, Pathogenic Fungi, M. canis, 14 Days: 1
  Grade code, Pathogenic Fungi, M. canis, 30 Days: 1
Microsporum canis; listed as 2.5% AB
  Grade code, Pathogenic Fungi, M. canis, 14 Days: 0
  Grade code, Pathogenic Fungi, M. canis, 30 Days: 0
[1]
  Synergism of cycloaliphatic diol with BIT (in words): significant enhancement to the antimicrobial activity of BIT

## CCCCCCC(O)CO (stereo not drawn) [CG, 1,2-octanediol]
Microsporum canis
  Grade code, Pathogenic Fungi, M. canis, 3 Days: 0
  Grade code, Pathogenic Fungi, M. canis, 14 Days: 0
  Grade code, Pathogenic Fungi, M. canis, 30 Days: 0
